Data on ten compounds can be found in US20220096468A1 (priority 2018, published 2022).

Where “and” joins values, the source holds several entries; their conditions need not be identical. Equal values may be shown once. Read-outs that look alike come from different tables or passages of the source. Marks after values point to notes of the source that are not given here.

Assay [1] deals with RdRp of the influenza virus (replicon activity) (Influenza A virus, UniProt P03431). Briefly: Influenza virus RdRp replicon reporter (Luc) assay in transduced 293T cells. The assay is classed as cell-based, Influenza A/PR/8/34 (H1N1). The settings on record: for inhibition at 10 µM: read-out: Replicon inhibiting percentage; for IC50: read-out: T-705 50% inhibitory concentration.
RdRp of the influenza virus (replicon activity), sequence (P03431 whole entry, looked up): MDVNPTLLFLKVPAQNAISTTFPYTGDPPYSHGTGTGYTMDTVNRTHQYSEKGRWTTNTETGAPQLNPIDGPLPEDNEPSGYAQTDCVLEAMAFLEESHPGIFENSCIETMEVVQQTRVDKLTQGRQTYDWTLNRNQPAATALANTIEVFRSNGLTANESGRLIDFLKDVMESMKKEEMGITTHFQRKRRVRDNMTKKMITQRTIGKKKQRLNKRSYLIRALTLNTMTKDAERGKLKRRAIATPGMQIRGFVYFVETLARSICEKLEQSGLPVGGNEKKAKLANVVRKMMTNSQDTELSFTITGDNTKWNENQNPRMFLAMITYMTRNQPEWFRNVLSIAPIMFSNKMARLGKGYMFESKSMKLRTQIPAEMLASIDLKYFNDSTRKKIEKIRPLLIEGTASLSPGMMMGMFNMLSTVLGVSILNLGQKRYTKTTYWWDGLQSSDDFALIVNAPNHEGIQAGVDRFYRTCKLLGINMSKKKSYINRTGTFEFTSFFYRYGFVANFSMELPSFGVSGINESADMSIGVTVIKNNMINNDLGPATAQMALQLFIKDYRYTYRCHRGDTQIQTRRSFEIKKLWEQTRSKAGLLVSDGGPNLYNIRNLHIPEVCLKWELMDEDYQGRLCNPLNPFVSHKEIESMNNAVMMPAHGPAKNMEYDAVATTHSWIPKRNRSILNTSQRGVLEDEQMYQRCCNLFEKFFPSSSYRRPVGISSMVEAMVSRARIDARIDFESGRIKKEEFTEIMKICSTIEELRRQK

The test system of assay [2] is influenza virus (PR/8(H1N1)). The assay is described as follows: microbe, parasite or virus in culture. Format: cell-based. As to conditions: for IC50: unidentified influenza virus, MDCK, MDCK cells.
The next assay deals with 293T cells. The assay is described as follows: Amount of intracellular T-705RTP in 293T cells by LC/MS/MS. Format: cell-based, human. The settings on record: 293T cells cultured 24 hours with T-705 and 6-mercaptopurine; FIG. 1. Here is the method: As described above, the pyrazine derivative or a salt thereof undergoes ribosyl phosphorylation in a cell. […] In order to examine whether or not the effect of 6-mercaptopurine to reinforce the activity of T-705, which was shown in Test Example 1, is caused by a change in the amount of T-705RTP, the amount of T-705RTP in 293T cells was measured under the treatment with 6-mercaptopurine.
293T cells (5×10^5 cells) seeded in each well of a 6-well plate were cultured with a vehicle (0.3% DMSO) or with 6-mercaptopurine, T-705, or the two drugs in various concentrations, under conditions of 5% CO2 at 37° C. for 24 hours.
After completion of the culture, the reaction mixture was washed with 2 ml of PBS, and 300 μl of trypsin was then added thereto. The obtained mixture was left at rest at 37° C. for 5 minutes, and the cells were then removed. Subsequently, 400 μl of a trypsin inhibitor was added and suspended into the cells, and the cell suspension was then recovered in a 1.5-ml tube. The cell suspension was centrifuged at 1,000 rpm at 4° C. for 2 minutes (MX-301, TOMY), and 500 μl of a supernatant was then removed. […]
The measurement of the number of cells and an LC/MS/MS analysis were carried out, and the amount of T-705RTP in each sample was then measured. […]

Assay [3] concerns influenza virus (PR/8(H1N1)). Format: cell-based.
A further assay deals with Punta Toro virus. The assay is classed as cell-based.
[4] abbreviates: HEK-293T, T-705 10 μM, antimetabolite 0.08 μM.
Where [5] appears, read: HEK-293T, T-705 10 μM, antimetabolite 0.4 μM.
The mark [6] stands for this setting: HEK-293T, T-705 10 μM, antimetabolite 2.0 μM.
[7] abbreviates: HEK-293T, T-705 10 μM, antimetabolite 10.0 μM.
[8] abbreviates: T-705 0 μM, antimetabolite 0.08 μM.
Setting [9] is: T-705 0 μM, antimetabolite 0.4 μM.
The mark [10] stands for this setting: T-705 0 μM, antimetabolite 2.0 μM.
Where [11] appears, read: T-705 0 μM, antimetabolite 10.0 μM.
Setting [12] is: HEK-293T, single agent, without T-705, read-out: replicon inhibiting percentage.

For `Sc1ncnc2nc[nH]c12` [6-Mercaptopurine, 6-mercaptopurine], the inhibition at 10 µM in assay [1] (setting [4]) was 1.8%; in assay [1] (setting [5]) it was 3.7%; in assay [1] (setting [6]), 17%; in assay [1] (setting [7]) it was 38%. For the same compound, the inhibition at 200 µM in assay [1] (HEK-293T, single agent, <200 μM, without T-705, read-out: replicon inhibiting percentage) was below 50%. Also, the Replicon inhibiting percentage in assay [1] (setting [8]) is −1.1%; in assay [1] (setting [9]) it was 1.5%; in assay [1] (setting [10]) it was 2.7%; in assay [1] (setting [11]) it was 8.2%. For the same compound, the CPE inhibitory effects entry in assay [2] (single agent, 10 μM) is recorded as “did not exhibit CPE inhibitory effects”. Further, the “amount of T-705RTP in the cells after the treatment of T-705” value in the assay with 293T cells was “increased”.
Turning to `Cn1cnc([N+](=O)[O-])c1Sc1ncnc2nc[nH]c12` [Azathioprine, azathioprine], the inhibition at 10 µM came to 3.3% in assay [1] (setting [4]), 1.3% in assay [1] (setting [5]), 5.9% in assay [1] (setting [6]) and 26% in assay [1] (setting [7]). The Replicon inhibiting percentage in assay [1] (setting [8]) was 3.1%; in assay [1] (setting [9]), −6.1%; in assay [1] (setting [10]), 3.4%; in assay [1] (setting [11]), 5.8%.
Regarding `CN(Cc1cnc2nc(N)nc(N)c2n1)c1ccc(C(=O)N[C@@H](CCC(=O)O)C(=O)O)cc1` [Methotrexate, methotrexate], the inhibition at 10 µM in assay [1] (setting [4]) amounted to 11%; in assay [1] (setting [5]), 36%; in assay [1] (setting [6]), 34%; in assay [1] (setting [7]) it was 37%. In addition, the inhibition at 20 µM in assay [1] (setting [12]) is below 50%. Besides, the Replicon inhibiting percentage was found to be 1.3% in assay [1] (setting [8]), 18% in assay [1] (setting [9]), 20% in assay [1] (setting [10]) and 19% in assay [1] (setting [11]).
Take `C#CCC(Cc1cnc2nc(N)nc(N)c2n1)c1ccc(C(=O)N[C@@H](CCC(=O)O)C(=O)O)cc1` (some centres unmarked) [Pralatrexate, pralatrexate]: the inhibition at 10 µM was found to be 33% in assay [1] (setting [4]), 33% in assay [1] (setting [5]), 33% in assay [1] (setting [6]) and 35% in assay [1] (setting [7]). For the same compound, in assay [1] (setting [12]), the inhibition at 20 µM was below 50%. Also, the Replicon inhibiting percentage is reported as 24% in assay [1] (setting [8]), 23% in assay [1] (setting [9]), 2% in assay [1] (setting [10]) and 23% in assay [1] (setting [11]).
As for `NC(=O)c1ncn([C@@H]2O[C@H](CO)[C@@H](O)[C@H]2O)n1` [Ribavirin], the “minimum drug concentration which exhibits complete CPE suppression effect” value in assay [3] (used alone) is 30 µM.
For `NC(=O)c1nc(F)cnc1O` [T-705, 6-Fluoro-3-hydroxy-2-pyrazinecarboxamide], the IC50 in assay [1] (6-Mercaptopurine concentration 0 μM) worked out at 310 µM; in assay [1] (6-Mercaptopurine concentration 0.03 μM), 303 µM; in assay [1] (6-Mercaptopurine concentration 0.09 μM), 275 µM; in assay [1] (6-Mercaptopurine concentration 0.27 μM) it was 219 µM; in assay [1] (6-Mercaptopurine concentration 0.82 μM), 163 µM; in assay [1] (6-Mercaptopurine concentration 2.5 μM), 67 µM. For the same compound, the IC50 in assay [1] (6-Mercaptopurine concentration 7.4 μM) was 16 µM; in assay [1] (6-Mercaptopurine concentration 22 μM) it was 2.3 µM; in assay [1] (6-Mercaptopurine concentration 67 μM), 5.1 µM; in assay [1] (6-Mercaptopurine concentration 200 μM), 23 µM; in assay [1] (Methotrexate concentration 0 μM) it was 314 µM; in assay [1] (Methotrexate concentration 0.08 μM), 46 µM. The IC50 was found to be 43 µM in assay [1] (Methotrexate concentration 0.16 μM); 41 µM in assay [1] (Methotrexate concentration 0.31 μM); 47 µM in assay [1] (Methotrexate concentration 0.63 μM); 40 µM in assay [1] (Methotrexate concentration 1.25 μM); 38 µM in assay [1] (Methotrexate concentration 2.5 μM); 39 µM in assay [1] (Methotrexate concentration 5 μM). For the same compound, the IC50 in assay [1] (Methotrexate concentration 10 μM) stood at 28 µM; in assay [1] (Methotrexate concentration 20 μM), 30 µM; in assay [1] (Pralatrexate concentration 0 μM) it was 304 µM; in assay [1] (Pralatrexate concentration 0.08 μM) it was 32 µM; in assay [1] (Pralatrexate concentration 0.16 μM), 31 µM; in assay [1] (Pralatrexate concentration 0.31 μM) it was 25 µM. Further, the IC50 in assay [1] (Pralatrexate concentration 0.63 μM) stood at 29 µM; in assay [1] (Pralatrexate concentration 1.25 μM), 18 µM; in assay [1] (Pralatrexate concentration 2.5 μM), 24 µM; in assay [1] (Pralatrexate concentration 5 μM), 25 µM; in assay [1] (Pralatrexate concentration 10 μM), 22 µM; in assay [1] (Pralatrexate concentration 20 μM), 23 µM. The IC50 was 1.97 µM in assay [2] (read-out: T-705 50% concentration (50% inhibitory concentration of T-705), 6-Mercaptopurine concentration 0 μM); 1.83 µM in assay [2] (read-out: T-705 50% concentration (50% inhibitory concentration of T-705), 6-Mercaptopurine concentration 0.1 μM); 1.32 µM in assay [2] (read-out: T-705 50% concentration (50% inhibitory concentration of T-705), 6-Mercaptopurine concentration 0.3 μM); 0.77 µM in assay [2] (read-out: T-705 50% concentration (50% inhibitory concentration of T-705), 6-Mercaptopurine concentration 1 μM); 0.7 µM in assay [2] (read-out: T-705 50% concentration (50% inhibitory concentration of T-705), 6-Mercaptopurine concentration 3 μM); 0.38 µM in assay [2] (read-out: T-705 50% concentration (50% inhibitory concentration of T-705), 6-Mercaptopurine concentration 10 μM). In assay [1] (T-705 10 μM, antimetabolite 0 μM (T-705 alone)), the Replicon inhibiting percentage is 0.58% and 2.2% and −1.8% and −2.3% and −7.8%. Further, the “minimum drug concentration which exhibits complete CPE suppression effect” value in assay [3] (6-mercaptopurine (10 μM) added) was 0.3 µM; in assay [3] (6-mercaptopurine (10 μM) and Ribavirin (3 μM) added), 0.1 µM; in assay [3] (used alone) it was 3 µM. For the same compound, the “LogTCID50 value that shows the effect of reducing the virus amount with respect to the infection control” value with Punta Toro virus is given as 1.0*.
Consider `NC(=O)c1nccnc1O` [T-1105, 3-hydroxy-pyrazinecarboxamide], for which the “LogTCID50 value that shows the effect of reducing the virus amount with respect to the infection control” value with Punta Toro virus is listed as 0.0.
The same measure, in the same setting: the value for `Cn1c(=O)c2[nH]cnc2n(C)c1=O` [Theophylline, theophylline] was “excellent effect of reducing the virus amount”.
Take `Nc1nc2nc[nH]c2c(=S)[nH]1` [Thioguanine]: the results for the inhibition at 10 µM in assay [1] (setting [4]), in assay [1] (setting [6]) and in assay [1] (setting [7]) were -1.2%, 14% and 23%, respectively. For the same compound, the Replicon inhibiting percentage in assay [1] (setting [8]) is given as −4.8%; in assay [1] (setting [9]) it was −5.4%; in assay [1] (setting [10]), −3.7%; in assay [1] (setting [11]) it was 12%.
As to `NC(=O)c1csc([C@@H]2O[C@H](CO)[C@@H](O)[C@H]2O)n1` [Tiazofurin, tiazofurin], the “LogTCID50 value that shows the effect of reducing the virus amount with respect to the infection control” value in the assay on Punta Toro virus was “excellent effect of reducing the virus amount”.
